According to paper PMC11990524, “Design and Synthesis of Novel 6-(Substituted phenyl)-[1,3]dioxolo[4′,5′:4,5]benzo[1,2-d]thiazole Compounds as Tyrosinase Inhibitors: In Vitro and In Vivo Insights” (Molecules, 2025):
Where two headings read alike, the source gives them in different places.

What was measured:
[1] = test system: HaCaT cells; assay: Cytotoxicity assay on HaCaT cells (EZ-Cytox); format: cell-based, human; details: 1, 2, 5, 10, and 20 μM, 24 h
Description: In addition to melanocytes, keratinocytes are the primary cells present in the epidermis. […] Each compound was treated at concentrations of 0, 1, 2, 5, 10, and 20 μM for 24 h, and cell viability was measured using the EZ-Cytox solution.
The effect of compounds 5 and 9 on cell viability of HaCaT and B16F10 cells was assessed using an EZ-Cytox solution (EZ-1000®, DoGenBio, Seoul, Republic of Korea). HaCaT (5 × 10^3 cells/well) and B16F10 (1 × 10^3 cells/well) cells were seeded in a 96-well plate, respectively, and cultured for 24 h under the same conditions as the cell culture. Each well was treated with 5 and 9 at 0, 1, 2, and 5 μM for B16F10 cells and 0, 1, 2, 5, 10, and 20 μM for HaCaT cells. The plates were incubated for 72 h for B16F10 cells and 24 h for HaCaT cells under a CO2 incubator. Each well was treated with the EZ-Cytox solution (10 μL), and the plate was left for 2 h under a CO2 incubator. Well optical density was measured at 450 nm to determine cytotoxicity.

[2] = test system: B16F10 cells; assay: Cellular melanin content assay using B16F10 cells; format: cell-based, murine
Description: After 72 h of incubation, the melanin content was evaluated by measuring the optical density at 405 nm.
The plate was incubated in a CO2 incubator for 1 h. Each well was treated with stimulators (α-MSH and IBMX; 1 μM and 200 μM, respectively) and incubated in a CO2 incubator for 72 h. The incubated cells were rinsed twice with PBS (pH 7.4). 1N–NaOH solution (100 μL) was added to each well and warmed at 60 °C for 1 h. The lysates were transferred to each well of a 96-well plate. The optical density was measured at 405 nm.

[3] = biological target: T1, B16F10 cellular tyrosinase (Mus musculus, UniProt P11344); assay: Cellular tyrosinase activity assay using B16F10 cells; format: cell-based, murine; details: 1, 2, and 5 μM, IBMX 200 μM plus α-MSH 1 μM, 72 h
T1 construct: endogenous in cells; host or cells: B16F10 murine cells, stimulated with α-MSH and IBMX
T1 sequence (P11344 19-533): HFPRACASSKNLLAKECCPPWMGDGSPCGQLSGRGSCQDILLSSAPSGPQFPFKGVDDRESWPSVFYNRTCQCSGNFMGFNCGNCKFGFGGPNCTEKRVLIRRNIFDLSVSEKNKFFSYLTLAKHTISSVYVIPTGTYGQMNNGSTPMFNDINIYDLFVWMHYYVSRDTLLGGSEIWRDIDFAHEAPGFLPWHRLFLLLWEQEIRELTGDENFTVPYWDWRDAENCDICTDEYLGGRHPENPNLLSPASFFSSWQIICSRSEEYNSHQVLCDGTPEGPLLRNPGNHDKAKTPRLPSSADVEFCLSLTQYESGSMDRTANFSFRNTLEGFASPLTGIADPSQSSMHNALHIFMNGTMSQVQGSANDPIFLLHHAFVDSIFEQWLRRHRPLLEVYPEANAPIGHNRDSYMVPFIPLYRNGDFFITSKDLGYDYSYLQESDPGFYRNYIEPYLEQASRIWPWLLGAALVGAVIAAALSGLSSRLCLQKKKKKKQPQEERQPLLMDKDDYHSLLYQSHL
Description: After 72 h of incubation, the B16F10 cellular tyrosinase inhibitory activity was evaluated by measuring the optical density at 475 nm.
To evaluate the effect of compounds 5 and 9 on cellular tyrosinase activity, B16F10 cells (5000 cells/well) were inoculated in a 6-well plate and cultured for 24 h under the same conditions as the cell culture. […] The plate was incubated in a 5% CO2 incubator maintained at 37 °C for 1 h. Each well was treated with stimulators (1 μM α-MSH [Alomone Labs^TM, Jerusalem, Israel] and 200 μM IBMX [Thermo Fisher, Rockford, IL, USA]) and incubated in a CO2 incubator for 72 h. The cells were rinsed twice with PBS (pH 7.4) and treated with 100 μL lysis buffer solution consisting of Triton X-100 (1%; 5 μL), phosphate buffer (50 mM; pH 6.5; 90 μL), and phenylmethanesulfonyl fluoride (2 mM; 5 μL). The lysates were placed for 30 min at −80 °C. After centrifuging at 10,000 g and 4 °C for 10 min, an aliquot (80 μL) of the supernatants was transferred to each well of a 96-well plate, and 20 μL of L-dopa solution (10 mM) was added to each well. The optical density at 475 nm was recorded every min for 10 min to determine cellular tyrosinase activity.

[4] = biological target: T2, mushroom tyrosinase (Agaricus bisporus, UniProt C7FF04); assay: Kinetic analysis of mushroom tyrosinase (Lineweaver–Burk and Dixon plots); format: biochemical; set-up: purchased Sigma-Aldrich; details: substrate L-dopa
Description: Therefore, the mechanism of inhibition was investigated using mushroom tyrosinase. At various concentrations of L-dopa, the initial dopachrome production rate was investigated at four different concentrations of 5 (0, 20, 40, and 80 μM) and 9 (0, 0.5, 1.0, and 2.0 μM).
The Lineweaver–Burk plot for each compound was re-plotted by plotting the reciprocal of the initial dopachrome production rate vs. the […] to create a Dixon plot for each compound (Figure 3C,D for compounds 5 and 9, respectively). […] The absolute value of the x-coordinate of the merged point represents the inhibition constant (Ki), which indicates the potency of the inhibitor.
Kinetic analysis of mushroom tyrosinase was performed by recording the initial dopachrome formation rate in the presence of compounds 5 and 9. […] The optical density of dopachrome production in each well was recorded at 475 nm at 5 min intervals for 30 min. Compounds were tested at 80, 40, 20, and 0 μM for 5 and at 2, 1.0, 0.5, and 0 μM for 9, respectively. Potting the inverse of the substrate concentration vs. the reciprocal of the initial dopachrome production rate generated Lineweaver–Burk plots.
Target sequence in this assay (C7FF04 1-392): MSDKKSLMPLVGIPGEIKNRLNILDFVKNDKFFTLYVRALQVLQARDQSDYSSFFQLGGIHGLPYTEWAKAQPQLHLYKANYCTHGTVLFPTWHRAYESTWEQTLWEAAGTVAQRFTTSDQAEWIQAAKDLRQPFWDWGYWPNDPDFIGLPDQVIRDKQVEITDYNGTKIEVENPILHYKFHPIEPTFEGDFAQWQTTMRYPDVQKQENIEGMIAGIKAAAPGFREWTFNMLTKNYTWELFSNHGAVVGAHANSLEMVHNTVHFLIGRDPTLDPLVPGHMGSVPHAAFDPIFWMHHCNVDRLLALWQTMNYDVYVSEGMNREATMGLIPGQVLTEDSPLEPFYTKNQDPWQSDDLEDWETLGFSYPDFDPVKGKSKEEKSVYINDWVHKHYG

[5] = biological target: T2, mushroom tyrosinase; assay: Mushroom tyrosinase inhibitory activity assay (L-dopa or L-tyrosine as substrate); format: biochemical; details: 50 μM, read-out: Inhibition (%, Mean ± SEM) at 50 μM (converted)
Description: In the inhibition experiments, L-dopa and L-tyrosine were used as enzyme substrates.
The plate was incubated at 37 °C for 30 min, and absorbance of dopachrome formation was recorded spectrophotometrically at 475 nm using a VersaMax® Elisa (VE) microplate reader (Molecular Devices, San Jose, CA, USA) to determine tyrosinase inhibition activity. A VE microplate reader was used in all subsequent experiments to measure optical density. All experiments were carried out independently three times.
Target sequence in this assay (C7FF04 2-392): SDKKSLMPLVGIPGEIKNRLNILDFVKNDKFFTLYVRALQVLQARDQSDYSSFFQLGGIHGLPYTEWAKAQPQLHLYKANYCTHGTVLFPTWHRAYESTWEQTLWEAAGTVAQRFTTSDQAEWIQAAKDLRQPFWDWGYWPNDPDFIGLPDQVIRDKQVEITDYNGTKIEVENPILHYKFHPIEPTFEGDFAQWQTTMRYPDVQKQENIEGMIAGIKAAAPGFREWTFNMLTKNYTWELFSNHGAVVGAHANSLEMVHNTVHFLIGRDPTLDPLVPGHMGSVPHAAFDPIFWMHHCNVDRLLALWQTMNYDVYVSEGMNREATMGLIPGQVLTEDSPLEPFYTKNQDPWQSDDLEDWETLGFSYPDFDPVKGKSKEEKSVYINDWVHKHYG

[6] = biological target: T3, B16F10 cell tyrosinase (Mus musculus, UniProt P11344); assay: In situ cellular tyrosinase activity assay using B16F10 cells; format: cell-based, murine; details: 1, 2, and 5 μM, IBMX plus α-MSH, 72 h, L-dopa 2 h
T3 construct: endogenous in cells; host or cells: B16F10 murine cells, stimulated with α-MSH and IBMX
T3 sequence (P11344 19-533): T1 sequence (P11344 19-533)
Description: After 72 h of incubation, the cells were treated with an excessive amount of L-dopa for 2 h, and then the melanin-stained cells were photographed, and the pigmented areas of the cells were determined using an ATTO CS Analyzer (ATTO, Tokyo, Japan).
B16F10 (3 × 10^3 cells/well) cells in a 24-well plate were incubated for 24 h in a 5% CO2 incubator maintained at 37 °C. […] Stimulators (α-MSH and IBMX; 1 μM and 200 μM, respectively) were exposed to cells 1 h after treatment with the test sample, and the cells were incubated for 72 h in a 5% CO2 incubator. The cells were fixed for 40 min using paraformaldehyde solution (4%) (Sigma-Aldrich, St. Louis, MO, USA), washed with PBS (pH 7.4), and permeabilized for 2 min using Triton X-100 (0.1%). After washing twice with PBS, each well was exposed to L-dopa solution (500 μL; 2 mM). After incubation for 2 h, images of the cells stained with excess melanin were obtained using a camera connected to a microscope (Motic, Hong Kong).

[7] = test system: zebrafish embryos; assay: In vivo pigmentation assay using zebrafish embryos; set-up: species or system Danio rerio; details: kojic acid 20 mM; treated at 24 hpf, measured at 72 hpf
Description: To identify whether the synthesized compounds could exert anti-melanogenic effects in vivo, in vivo experiments were performed using zebrafish embryos. Freely obtained zebrafish embryos were transferred to a culture dish containing an E3-MB solution and incubated at 28 °C until use. For a preliminary experiment, zebrafish embryos were dechorionated using Pronase® (Sigma-Aldrich) at 20 h post fertilization (hpf), and each compound at 0.1 mM was exposed to five zebrafish embryos in E3 solution at 24 hpf. The depigmentation abilities were compared at 72 hpf to select the compounds used in the main experiments. From the preliminary experiments (n = 1), five compounds (2, 5, and 11–13) were selected for the main depigmentation experiments (n = 3). As in the preliminary experiment, the obtained zebrafish embryos were dechorionated at 20 hpf, and each selected compound (0.1 mM) was administered to six zebrafish embryos in the E3 solution at 24 hpf. The pigmentation of zebrafish larvae was photographed and measured in dorsal and lateral views at 72 hpf using an ATTO CS analyzer (ATTO, Tokyo, Japan). […] Pigmentation of zebrafish larvae was imaged using the SMZ745T microscope (Nikon, Tokyo, Japan), and the pigmented areas were measured in dorsal and lateral views at 72 hpf using an ATTO CS analyzer (ATTO, Tokyo, Japan).

SMILES | cytotoxicity (cell viability) [1] | melanin content ([2]; 1, 2, and 5 μM, IBMX 200 μM plus α-MSH 1 μM, 72 h) | melanin production inhibition compared with kojic acid ([2]; same concentration (5 μM)) | cellular tyrosinase activity [3] | Ki ([4]; Dixon plot, read-out: inhibition constant (Ki)) [µM] | mechanism of inhibition ([4]; Lineweaver–Burk plot) | inhibition at 50 µM ([5]; substrate L-dopa) [%] | inhibition at 50 µM ([5]; substrate L-tyrosine) [%] | number of cells strongly stained with melanin (in situ tyrosinase) [6] | depigmentation effect on zebrafish larvae [7]
Oc1ccc(-c2nc3cc4c(cc3s2)OCO4)cc1 [Compound 5, 4-([1,3]Dioxolo[4′,5′:4,5]benzo[1,2-d]thiazol-6-yl)phenol] | None of the compounds revealed significant cytotoxicity up to 20 μM | significantly reduced the stimulator-induced melanin contents | inhibited melanin production more potently than kojic acid | significantly decreased the cellular tyrosinase activity | 46 | competitive inhibitors | 63.3 | 61.4 | evidently reduced the number of cells strongly stained with melanin | –
O=c1cc(CO)occ1O [kojic acid] | – | – | – | – | – | – | – | – | – | significant depigmentation effect
